This passage reports IC50 and EC50 results from patent publication US7842808B2, “Anti-migraine spirocycles” (Bristol-Myers Squibb Company, priority 2002, dated 2010).

Test [1] concerns the target T1, human CGRP receptor (SK-N-MC cells) (Homo sapiens, UniProt O60894+Q16602).
T1 construct: SK-N-MC cells that endogenously express the human CGRP receptor; endogenous in cells; host or cells: SK-N-MC cells
The test is described as follows: Cyclic AMP Assay, functional antagonism of CGRP-induced cyclic AMP formation. It is filed as cell-based. The following applies: SK-N-MC cells, 0.3 nM CGRP; read-out: cAMP Function IC50. The protocol: Functional Antagonism. Antagonism of the compounds of invention was determined by measuring the formation of cyclic AMP (adenosine 3′5′-cyclic monophosphate) in SK-N-MC cells that endogenously express the human CGRP receptor. […] For cyclic AMP measurements SK-N-MC cells were incubated with 0.3 nM CGRP alone or in the presence of various concentrations of the compounds of invention for 30 min at room temperature. […] Cyclic AMP was extracted using the lysis reagent and its concentration was determined by radioimmunoassay using RPA559 cAMP SPA Direct Screening Assay Kit (Amersham Pharmacia Biotech). IC50 values were calculated using Excel fit.

The test system of test [2] is human cerebral vessels (CGRP-induced dilation). Briefly: Ex Vivo Human Cerebral Artery Assay, reversal of CGRP-induced relaxation. As to conditions: reversal of 1 nM hCGRP-induced relaxation, vessels pre-contracted with 10 mM KCl. The source says: Rationale and Overview. To provided direct evidence of the ability for novel compounds to reverse CGRP-induced dilation in human cerebral vessels, an ex vivo assay was design. Briefly, isolated vessel rings were mounted in a tissue bath where vessels were pre-contracted with potassium chloride (KCl) and fully dilated with hCGRP, then this relaxation was reversed by the cumulative addition of CGRP-receptor antagonists (complete details follow).
Tissue Samples. Autopsy samples of human arteries were obtained from vendors (ABS Inc. or NDRI). All vessels were transported on ice-cold HEPES buffer (composition in mM: NaCl 130, KCl 4, KH2PO4 1.2, MgSO4 1.2, CaCl2 1.8, Glucose 6, NaHCO3 4, HEPES 10, EDTA 0.025). Upon receipt, the vessels were placed in cold Kreb's buffer (composition in mM: NaCl 118.4, KCl 4.7, KH2PO4 1.2, MgSO4 1.2, CaCl2 1.8, Glucose 10.1, NaHCO3 25) saturated with carbogen (5% CO2 and 95% oxygen).
Isolated Tissue Baths. The vessels were cleaned of connective tissues and cut into cylindrical segments of 4-5 mm in length. The vessels were then mounted in tissue baths between two stainless steel hooks; one of which is fixed and the other of which was connected to a force displacement transducer. The vessel tension was continuously recorded using a data acquisition system (Powerlab, ADInstruments, Mountain View, Calif.) connected to the transducer. The tissue baths containing Krebs buffer and mounted vessels were temperature (37° C.) and pH (7.4) controlled with continuous bubbling of carbogen. The artery segments were allowed to equilibrate for about 30-45 min until a stable resting tone was achieved. Prior to the assay, vessels were primed (conditioned) with 100 mM KCl and subsequently washed. The vessels were pre-contracted with 10 mM KCl and fully dilated with 1 nM hCGRP. Concentration-response curves to CGRP-receptor antagonists were performed by the cumulative addition of drugs in half log units in fully dilated vessels. At each concentration, the effects of the drugs were expressed as % reversal of CGRP-induced relaxation in each vessel. The actual assay and data analysis were performed for each vessel individually, fitting the concentration-response data to a four parameter logistic function by non-linear regression analysis, to estimate the EC50 values.

For test [3], the target named is T2, CGRP receptor (SK-N-MC cell membranes) (Homo sapiens, UniProt O60894+Q16602).
T2 construct: endogenous in cells; host or cells: SK-N-MC cells (membrane homogenate)
Briefly: CGRP Binding Assay ([125I]-CGRP radioligand binding, SK-N-MC homogenate). The following applies: displacement of [125I]-CGRP, SK-N-MC homogenate; read-out: CGRP binding IC50. (In a radioligand displacement assay an active substance lowers the binding of a labelled ligand.)

T2 sequence (Q16602 23-461): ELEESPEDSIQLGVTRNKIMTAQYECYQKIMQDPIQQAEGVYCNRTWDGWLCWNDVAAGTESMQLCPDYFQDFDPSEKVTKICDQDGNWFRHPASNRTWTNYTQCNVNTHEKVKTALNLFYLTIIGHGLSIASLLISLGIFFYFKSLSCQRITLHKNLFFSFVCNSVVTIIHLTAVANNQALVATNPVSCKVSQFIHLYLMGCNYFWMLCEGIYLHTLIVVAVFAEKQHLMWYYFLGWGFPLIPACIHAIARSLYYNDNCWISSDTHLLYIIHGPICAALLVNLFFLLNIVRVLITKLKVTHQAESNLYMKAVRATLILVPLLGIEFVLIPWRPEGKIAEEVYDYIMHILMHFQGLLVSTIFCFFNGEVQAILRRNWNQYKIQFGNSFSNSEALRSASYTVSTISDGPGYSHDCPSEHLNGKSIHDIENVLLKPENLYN
T2 sequence (O60894 27-148): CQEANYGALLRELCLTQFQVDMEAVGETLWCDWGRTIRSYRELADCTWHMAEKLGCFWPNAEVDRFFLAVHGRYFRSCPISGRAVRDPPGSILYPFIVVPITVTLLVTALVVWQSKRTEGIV
T1 sequence (Q16602 23-461): as the sequence (Q16602 23-461) above
T1 sequence (O60894 27-148): as the sequence (O60894 27-148) above

Regarding `Cc1cc(CC(CC(=O)N2CCC3(CC2)OC(=O)Nc2ccccc23)C(=O)N2CCC(N3CCCCC3)CC2)cc2cn[nH]c12` (racemic) [Example 68, (±)-1-[1,4′]Bipiperidinyl-1′-yl-2-(7-methyl-1H-indazol-5-ylmethyl)-4-[1′,2′-dihydro-2′-oxospiro-[4H-3′,1-benzoxazine-4,4′-piperidinyl]-butane-1,4-dione], the IC50 in test [1] and in test [3] was under 10 nM throughout. In addition, the EC50 (commonly the midpoint of the concentration-response curve) in test [2] is under 10 nM.

For `Cc1cc(CC(NC(=O)N2CCC(N3Cc4ccccc4NC3=O)CC2)C(=O)N2CCCC2)cc2cn[nH]c12` (racemic) [Example 20, (±)-4-(2-Oxo-1,4-dihydro-2H-quinazolin-3-yl)-piperidine-1-carboxylic acid[1-(7-methyl-1H-indazol-5-ylmethyl)-2-oxo-2-pyrrolidin-1-yl-ethyl]-amide], the IC50 in test [1] and in test [3] was under 10 nM in each case. Further, the EC50 in test [2] is under 10 nM.

Turning to `O=C(NC(CN1CCc2[nH]ncc2C1)C(=O)N1CCC(N2CCCCC2)CC1)N1CCC(N2Cc3ccccc3NC2=O)CC1` (racemic) [Example 54, (±)-4-(2-Oxo-1,4-dihydro-2H-quinazolin-3-yl)-piperidine-1-carboxylic acid[2-[1,4′]bipiperidinyl-1′-yl-2-oxo-1-(1,4,6,7-tetrahydro-pyrazolo[4,3-c]pyridin-5-ylmethyl)-ethyl]-amide], the IC50 (usually the concentration at which inhibition is half-maximal) in test [1] fell in the range of 100 to 1000 nM; in test [3], 10 to 100 nM. Further, the EC50 in test [2] is under 10 nM.

As for `O=C(C[C@H](Nc1ccc2[nH]ccc2c1)C(=O)N1CCC(N2CCCCC2)CC1)N1CCC(N2Cc3ccccc3NC2=O)CC1` [Example 86, (L)-1-[1,4′]Bipiperidinyl-1′-yl-2-(1H-indol-5-ylamino)-4-[4-(2-oxo-1,4-dihydro-2H-quinazolin-3-yl)-piperidin-1-yl]-butane-1,4-dione], the figures for the IC50 in test [1] and in test [3] were 10 to 100 nM and 100 to 1000 nM, respectively. Besides, in test [2], the EC50 was 100 to 1000 nM.

`O=C1Nc2ccccc2C2(CCN(C(=O)C[C@H](Cc3csc4ccccc34)C(=O)N3CCC(N4CCCCC4)CC3)CC2)O1` [Example 65]: the half-inhibitory concentration (IC50) in test [1] was 10 to 100 nM; in test [3] it was under 10 nM. In addition, the EC50 in test [2] lay within 10 to 100 nM.

On to `O=C1Nc2ccccc2C2(CCN(C(=O)N[C@H](Cc3csc4ccccc34)C(=O)N3CCC(N4CCCCC4)CC3)CC2)O1` [Example 64, N-[(1R)-1-(Benzo[b]thien-3-ylmethyl)-2-[1,4′-bipiperidin]-1′-yl-2-oxoethyl]-1,2-dihydro-2-oxospiro-[4H-3,1-benzoxazine-4,4′-piperidine]-1′-carboxamide], for which, in test [2], the EC50 was 10 to 100 nM. Moreover, the concentration for half-maximal inhibition (IC50) in test [3] fell in the range of 10 to 100 nM.

Turning to `Cc1cc(CC(NC(=O)N2CCC3(CC2)OC(=O)Nc2ccccc23)C(=O)N2CCC(N3CCCCC3)CC2)cc2cn[nH]c12` (racemic) [Example 25, (±)-1-(7-Methyl-1H-indazol-5-ylmethyl)-2-[1,4-bipiperidin]-1-yl-2-oxoethyl]-1′,2′-dihydro-2′-oxospiro-[4H-3′,1-benzoxazine-4,4′-piperidine]-1-carboxamide], the half-inhibitory concentration (IC50) in test [1] and in test [3] was under 10 nM each time. In addition, the EC50 in test [2] is under 10 nM.

Take `Cc1cc(CC(CC(=O)N2CCC3(CC2)OC(=O)Nc2ccccc23)C(=O)N(C)C)cc2cn[nH]c12` (racemic) [Example 76, (±)-N,N-Dimethyl-2-(7-methyl-1H-indazol-5-ylmethyl)-4-oxo-4-[1′,2′-dihydro-2′-oxospiro-[4H-3′,1-benzoxazine-4,4′-piperidinyl]-butyramide]: the IC50 in test [1] and in test [3] was 10 to 100 nM in each case. Moreover, the EC50 in test [2] is under 10 nM.

Regarding `Cc1cc(CC(CC(=O)N2CCC(N3Cc4ccccc4NC3=O)CC2)C(=O)N2CCC(C)CC2)cc2cn[nH]c12` (racemic) [Example 74, (±)-2-(7-Methyl-1H-indazol-5-ylmethyl)-1-(4-methyl-piperidin-1-yl)-4-[4-(2-oxo-1,4-dihydro-2H-quinazolin-3-yl)-piperidin-1-yl]-butane-1,4-dione], the IC50 in test [1] and in test [3] was under 10 nM each time. Also, the 50% effective concentration (EC50) in test [2] is under 10 nM.

Take `Cc1cc(CC(NC(=O)N2CCC(N3Cc4ccccc4NC3=O)CC2)C(=O)N2CCN(C)CC2)cc2cn[nH]c12` (racemic) [Example 19, (±)-4-(2-Oxo-1,4-dihydro-2H-quinazolin-3-yl)-piperidine-1-carboxylic acid[1-(7-methyl-1H-indazol-5-ylmethyl)-2-(4-methyl-piperazin-1-yl)-2-oxo-ethyl]-amide]: the IC50 in test [1] and in test [3] was under 10 nM each time. In addition, the concentration giving a half-maximal response (EC50) in test [2] was under 10 nM.

With `Cc1cc(CC(NC(=O)N2CCC3(CC2)OC(=O)Nc2ccccc23)C(=O)N2CCCCC2)cc2cn[nH]c12` (racemic) [Example 26, (±)-1-(7-Methyl-1H-indazol-5-ylmethyl)-2-(1-piperidinyl)-2-oxoethyl]-1′,2′-dihydro-2′-oxospiro-[4H-3′,1-benzoxazine-4,4′-piperidine]-1-carboxamide], the concentration for half-maximal inhibition (IC50) in test [1] and in test [3] was 10 to 100 nM throughout.

In the case of `Cc1cc(CC(NC(=O)N2CCC3(CC2)CC(=O)Nc2ccccc23)C(=O)N2CCC(N3CCCCC3)CC2)cc2cn[nH]c12` (racemic) [Example 31, (±)-1-(7-Methyl-1H-indazol-5-ylmethyl)-2-[1,4-bipiperidin]-1-yl-2-oxoethyl]3′,4′-dihydro-2′-oxospiro-[piperidine-4,4′-(1H)-quinoline]-1-carboxamide], the IC50 in test [1] and in test [3] was under 10 nM throughout.

With `O=C(C[C@H](NCc1ccc2[nH]ncc2c1)C(=O)N1CCC(N2CCCCC2)CC1)N1CCC(N2Cc3ccccc3NC2=O)CC1` [Example 94, (L)-1-[1,4′]Bipiperidinyl-1′-yl-2-((5′-indazolyl)-methyl-amino)-4-[4-(2-oxo-1,4-dihydro-2H-quinazolin-3-yl)-piperidin-1-yl]-butane-1,4-dione], the IC50 in test [1] and in test [3] was 100 to 1000 nM in each case.

With `O=C1Nc2ccccc2C2(CCN(C(=O)CC(Cc3ccc4[nH]ncc4c3)C(=O)N3CCC(N4CCCCC4)CC3)CC2)O1` (racemic) [Example 79, (±)-1-[1,4′]Bipiperidinyl-1′-yl-2-(1H-indazol-5-ylmethyl)-4-[1′,2′-dihydro-2′-oxospiro-[4H-3′,1-benzoxazine-4,4′-piperidinyl]-butane-1,4-dione], the IC50 lay in the range of 100 to 1000 nM in test [1] and 10 to 100 nM in test [3].

As for `CC(C)CN1CCN(C(=O)C(Cc2ccc3[nH]ncc3c2)NC(=O)N2CCC(n3c(=O)[nH]c4ccccc43)CC2)CC1` (racemic) [Example 9, (±)-4-(2-Oxo-2,3-dihydro-benzoimidazol-1-yl)-piperidine-1-carboxylic acid[1-(1H-indazol-5-ylmethyl)-2-(4-isobutyl-piperazin-1-yl)-2-oxo-ethyl]-amide], the IC50 in test [1] and in test [3] was 10 to 100 nM in each case.

For the compound `Cc1nc2cc(C[C@@H](NC(=O)N3CCC(N4Cc5ccccc5NC4=O)CC3)C(=O)N3CCC(N4CCCCC4)CC3)ccc2[nH]1` [Example 46, (R)-4-(2-Oxo-1,4-dihydro-2H-quinazolin-3-yl)-piperidine-1-carboxylic acid[2-[1,4′]bipiperidinyl-1′-yl-1-(2-methyl-1H-benzoimidazol-5-ylmethyl)-2-oxo-ethyl]-amide], the IC50 in test [1] and in test [3] was 10 to 100 nM in each case.

`O=C(C[C@H](Nc1cc(Cl)ncn1)C(=O)N1CCC(N2CCCCC2)CC1)N1CCC(N2Cc3ccccc3NC2=O)CC1` [Example 88, (L)-1-[1,4′]Bipiperidinyl-1′-yl-2-(6-chloro-pyrimidin-4-ylamino)-4-[4-(2-oxo-1,4-dihydro-2H-quinazolin-3-yl)-piperidin-1-yl]-butane-1,4-dione]: the IC50 in test [1] lay within 10 to 100 nM; in test [3], 100 to 1000 nM.
